Assay: in vitro
Conditions: human, hela cells, % viability
Work on `O=C(CCn1c(-c2ccncc2)cc2cccnc21)N1CCCC1` [CBK282151] yielded a viability at 28.5 h, 10 µM of 96.7%. Work on `CC1CCCN(C(=O)CCn2c(-c3ccncc3)cc3cccnc32)C1` (stereo not drawn) [CBK282152] yielded a viability at 28.5 h, 10 µM of 108%. `CC1CCCN(C(=O)CCn2c(-c3ccccn3)cc3cccnc32)C1` (stereo not drawn) [CBK282154] gave a viability at 28.5 h, 10 µM of 91.2%. With `CCN(CC)C(=O)CCn1c(-c2cccnc2)cc2cccnc21` [CBK282160] the viability at 28.5 h, 10 µM was 106%. In the case of `CN(CCCN1CCCCC1)C(=O)C1Cc2cc(Cl)ccc2O1` (stereo not drawn) [CBK282162], the viability at 28.5 h, 10 µM is reported as 104%. For `CC(C)c1cc(C(=O)N(CCO)CC2CC3C=CC2C3)n(C)n1` (stereo not drawn) [CBK282164], the viability at 28.5 h, 10 µM was 84.6%. For `O=C(CCn1c(C(F)F)cc2cccnc21)NCC1CCCO1` (stereo not drawn) [CBK282165], the viability at 28.5 h, 10 µM was 83%. Work on `CC(C(=O)N1CCC(c2nn(C)c3ncccc23)CC1)c1ccccc1` (stereo not drawn) [CBK282166] yielded a viability at 28.5 h, 10 µM of 97.4%. `CC(=O)NCCn1cc2c(n1)[C@H]1CN(C(=O)C(C)(C)C)C[C@H]1CC2` [CBK282168] gave a viability at 28.5 h, 10 µM of 102%. With `CCCn1ncc(C(=O)N2CCC(Oc3ccccc3F)CC2)c1C` [CBK282169] the viability at 28.5 h, 10 µM was 115%. For `CC(=O)NC(c1nccs1)C1CCCN(C(=O)C2CCCCC2)C1` (stereo not drawn) [CBK282170], the viability at 28.5 h, 10 µM was 113%. Compound `CCc1cc(C(=O)N2CCC(Oc3ccccc3F)CC2)n(C)n1` [CBK282172] has a viability at 28.5 h, 10 µM of 109%. For `Cc1ccc(-c2nc(C)sc2CC(=O)N(C)CCN(C)C)cc1` [CBK282175], the viability at 28.5 h, 10 µM was 112%. In the case of `O=C(C1CC2C=CC1C21CC1)N1CCC(Oc2ccccc2F)CC1` (stereo not drawn) [CBK282179], the viability at 28.5 h, 10 µM is reported as 103%. Compound `Cc1c(CN2CCCCC2CCN2CCCC2=O)oc2ccccc12` (stereo not drawn) [CBK282181] has a viability at 28.5 h, 10 µM of 104%. `CCC(CC)C(=O)N1C[C@H]2CCc3cn(CCNC(C)=O)nc3[C@H]2C1` [CBK282183] gave a viability at 28.5 h, 10 µM of 104%. Compound `Cc1nn(CC(C)C(=O)N2CCCC(CN(C)C)C2)c(C)c1Cl` (stereo not drawn) [CBK282186] has a viability at 28.5 h, 10 µM of 102%. `COc1ccc2c(c1)c(C)c(C(=O)N1CCCCC1CN(C)C)n2C` (stereo not drawn) [CBK282190] showed a viability at 28.5 h, 10 µM of 90.1%. Compound `CN(C)CC1CCCCN1C(=O)C1CC(=O)N(c2cccc(F)c2)C1` (stereo not drawn) [CBK282192] has a viability at 28.5 h, 10 µM of 108%. Compound `Cc1nc(SCC(=O)NCC2CCCOC2)oc1C` (stereo not drawn) [CBK282195] has a viability at 28.5 h, 10 µM of 94.6%. With `Cc1nc(C)c(C(=O)NCCN2CCCCC2C)s1` (stereo not drawn) [CBK282200] the viability at 28.5 h, 10 µM was 106%. Compound `O=C(CC1CCCCO1)Nc1cccc(Cn2ccnc2)c1` (stereo not drawn) [CBK282204] has a viability at 28.5 h, 10 µM of 90.6%. Compound `CCN1CCCCC1CNC(=O)c1cc(C2CC2)n[nH]1` (stereo not drawn) [CBK282205] has a viability at 28.5 h, 10 µM of 91.1%. With `CCN1CCCCC1CNC(=O)c1n[nH]c2c1CCC2` (stereo not drawn) [CBK282207] the viability at 28.5 h, 10 µM was 96.2%. With `CC(CNC(=O)Cn1nc(C(F)(F)F)c2c1CCC2)N1CCCC1` (stereo not drawn) [CBK282212] the viability at 28.5 h, 10 µM was 89.9%. In the case of `CN(CC(F)(F)F)C(=O)CCc1nc(-c2cccs2)no1` [CBK282215], the viability at 28.5 h, 10 µM is reported as 89.8%. With `O=C(C1C2CCCCC21)N1CCC(Oc2cccc(F)c2)CC1` (stereo not drawn) [CBK282216] the viability at 28.5 h, 10 µM was 106%. With `COc1ccc2c(c1)CCCN2C(=O)CCn1ccc(C)n1` [CBK282217] the viability at 28.5 h, 10 µM was 104%. Compound `CCc1noc(C)c1C(=O)NCCN1CCCCC1C` (stereo not drawn) [CBK282219] has a viability at 28.5 h, 10 µM of 98.9%. In the case of `CC(Cn1cccn1)NCc1cn(C)c2cc(F)ccc12` (stereo not drawn) [CBK282220], the viability at 28.5 h, 10 µM is reported as 88.4%. With `Cc1nc(C)c(C(=O)NCCN2CCCC2=O)s1` [CBK282222] the viability at 28.5 h, 10 µM was 84.2%. In the case of `Cc1nc(C)n(CCC(=O)NC(C)c2cccs2)n1` (stereo not drawn) [CBK282224], the viability at 28.5 h, 10 µM is reported as 105%. `CN1CC(c2ccccc2)C2(CCNCC2)C1` (stereo not drawn) [CBK282225] showed a viability at 28.5 h, 10 µM of 105%. `Cc1csc(C(Cc2ccsc2)NC(=O)C2CC2C)n1` (stereo not drawn) [CBK282226] showed a viability at 28.5 h, 10 µM of 86.7%. With `Cc1csc(C(Cc2ccsc2)NC(=O)CC2CCCO2)n1` (stereo not drawn) [CBK282227] the viability at 28.5 h, 10 µM was 92.1%. `Cc1nc(C(Cc2ccsc2)NC(=O)C2CCCNC2)sc1C` (stereo not drawn) [CBK282228] showed a viability at 28.5 h, 10 µM of 87.6%. Compound `Cc1nc(C2CCN(C(=O)c3ccncc3)CC2)c2sccn12` [CBK282235] has a viability at 28.5 h, 10 µM of 99.9%. `Cc1nc(C2CCN(C(=O)c3ccccn3)CC2)c2sccn12` [CBK282238] showed a viability at 28.5 h, 10 µM of 91.6%. `O=C(Cc1ccccn1)NC(Cc1cccs1)c1ccccn1` (stereo not drawn) [CBK282243] showed a viability at 28.5 h, 10 µM of 93.1%. Work on `CCn1cc(-c2cncn2CCCn2ccnc2C(C)C)cn1` [CBK282244] yielded a viability at 28.5 h, 10 µM of 89.4%. Compound `Cn1ncc2c1CCCN(C(=O)c1ccccc1C(F)(F)F)C2` [CBK282251] has a viability at 28.5 h, 10 µM of 84.1%. Compound `Cn1ncc2c1CCCN(C(=O)c1cccc(C(F)(F)F)c1)C2` [CBK282252] has a viability at 28.5 h, 10 µM of 87.3%. With `Cn1cc(CN2C3CCC(C3)[C@@H]2COc2ccc(F)cc2)cn1` (stereo partly drawn) [CBK282257] the viability at 28.5 h, 10 µM was 106%. Work on `Cc1nn(C)c(C)c1-c1ccc(=O)n(Cc2ccc(F)cc2)n1` [CBK282258] yielded a viability at 28.5 h, 10 µM of 95.3%. Compound `CCCC(=O)N1CCCCC1c1c(-c2onc(C)c2C)cnn1C` (stereo not drawn) [CBK282259] has a viability at 28.5 h, 10 µM of 94.7%. Work on `O=C(CCn1cccn1)N1Cc2ccccc2CC1C1CCOCC1` (stereo not drawn) [CBK282262] yielded a viability at 28.5 h, 10 µM of 83.8%. In the case of `CC(C(=O)NCCc1cn(C)c2ccc(Cl)cc12)N1CCOCC1` (stereo not drawn) [CBK282263], the viability at 28.5 h, 10 µM is reported as 94.6%. `Cc1ncncc1C(=O)N1CCCCC1CCc1ccccc1` (stereo not drawn) [CBK282264] showed a viability at 28.5 h, 10 µM of 109%.
